Experimental data: article PMC4996973, “Topology and structure of an engineered human cohesin complex bound to Pds5B” (Nature Communications, 2016)
Each block holds one molecule with its values, some of them ahead of it.

How the values were obtained:
[1] = biological target: T1, bonsai cohesin trimer (Smc1^B, Smc3^B, Scc1) (Homo sapiens, UniProt Q14683+Q9UQE7, Q9UQE7:K38A/Q14683:DEL201-498/Q9UQE7:DEL205-491/Q14683:DEL676-977/Q9UQE7:DEL686-956); assay: radiolabelled ATPase assay, thin layer chromatography of released […]-Pi; format: biochemical; conditions: labelled compound (γ-32P); ATP-binding region mutant, ATPase largely abolished
T1 construct: gene SMC1A; coiled coils of Smc1 and Smc3 truncated and replaced by two-residue linkers (superscript B = bonsai, not the SMC1B paralogue); Smc3^B-FLAG, Scc1-10HIS tags; co-expressed from baculovirus in Sf9; stoichiometric trimer, 222 kDa; with Double-strand-break repair protein rad21 homolog

[2] = biological target: T2, bonsai cohesin trimer (Smc1^B, Smc3^B, Scc1) (Homo sapiens, UniProt Q14683+Q9UQE7, Q14683:DEL201-498/Q9UQE7:DEL205-491/Q14683:DEL676-977/Q9UQE7:DEL686-956); assay: as above; format: biochemical; conditions: labelled compound (γ-32P)
T2 construct: gene SMC1A; coiled coils of Smc1 and Smc3 truncated and replaced by two-residue linkers (superscript B = bonsai, not the SMC1B paralogue); Smc3^B-FLAG, Scc1-10HIS tags; co-expressed from baculovirus in Sf9; stoichiometric trimer, 222 kDa; with Double-strand-break repair protein rad21 homolog

[3] = biological target: T2, bonsai cohesin trimer (Smc1^B, Smc3^B, Scc1); assay: differential scanning fluorimetry (thermal shift); format: binding; conditions: slowly hydrolysable ATP analogue; stabilises the complex; trimer inferred from context
[4] = biological target: T3, Pds5B^10HIS (human, UniProt Q9NTI5 1-1447); assay: cross-linking; chemical crosslinking followed by mass spectrometry of purified bonsai cohesin (co-expressed subunits) bound to Pds5B; 102 inter- and 244 intramolecular crosslinks; details in the Supplementary Methods; conditions: both partners purified
T3 construct: Pds5B, human, recombinant; printed mass 165 kDa; source: sf9 cells (baculovirus), purified (Ni-NTA; imidazole removed by dilution and concentration or by size-exclusion chromatography on Superdex 200), freeze-thawed
T3 sequence (looked up): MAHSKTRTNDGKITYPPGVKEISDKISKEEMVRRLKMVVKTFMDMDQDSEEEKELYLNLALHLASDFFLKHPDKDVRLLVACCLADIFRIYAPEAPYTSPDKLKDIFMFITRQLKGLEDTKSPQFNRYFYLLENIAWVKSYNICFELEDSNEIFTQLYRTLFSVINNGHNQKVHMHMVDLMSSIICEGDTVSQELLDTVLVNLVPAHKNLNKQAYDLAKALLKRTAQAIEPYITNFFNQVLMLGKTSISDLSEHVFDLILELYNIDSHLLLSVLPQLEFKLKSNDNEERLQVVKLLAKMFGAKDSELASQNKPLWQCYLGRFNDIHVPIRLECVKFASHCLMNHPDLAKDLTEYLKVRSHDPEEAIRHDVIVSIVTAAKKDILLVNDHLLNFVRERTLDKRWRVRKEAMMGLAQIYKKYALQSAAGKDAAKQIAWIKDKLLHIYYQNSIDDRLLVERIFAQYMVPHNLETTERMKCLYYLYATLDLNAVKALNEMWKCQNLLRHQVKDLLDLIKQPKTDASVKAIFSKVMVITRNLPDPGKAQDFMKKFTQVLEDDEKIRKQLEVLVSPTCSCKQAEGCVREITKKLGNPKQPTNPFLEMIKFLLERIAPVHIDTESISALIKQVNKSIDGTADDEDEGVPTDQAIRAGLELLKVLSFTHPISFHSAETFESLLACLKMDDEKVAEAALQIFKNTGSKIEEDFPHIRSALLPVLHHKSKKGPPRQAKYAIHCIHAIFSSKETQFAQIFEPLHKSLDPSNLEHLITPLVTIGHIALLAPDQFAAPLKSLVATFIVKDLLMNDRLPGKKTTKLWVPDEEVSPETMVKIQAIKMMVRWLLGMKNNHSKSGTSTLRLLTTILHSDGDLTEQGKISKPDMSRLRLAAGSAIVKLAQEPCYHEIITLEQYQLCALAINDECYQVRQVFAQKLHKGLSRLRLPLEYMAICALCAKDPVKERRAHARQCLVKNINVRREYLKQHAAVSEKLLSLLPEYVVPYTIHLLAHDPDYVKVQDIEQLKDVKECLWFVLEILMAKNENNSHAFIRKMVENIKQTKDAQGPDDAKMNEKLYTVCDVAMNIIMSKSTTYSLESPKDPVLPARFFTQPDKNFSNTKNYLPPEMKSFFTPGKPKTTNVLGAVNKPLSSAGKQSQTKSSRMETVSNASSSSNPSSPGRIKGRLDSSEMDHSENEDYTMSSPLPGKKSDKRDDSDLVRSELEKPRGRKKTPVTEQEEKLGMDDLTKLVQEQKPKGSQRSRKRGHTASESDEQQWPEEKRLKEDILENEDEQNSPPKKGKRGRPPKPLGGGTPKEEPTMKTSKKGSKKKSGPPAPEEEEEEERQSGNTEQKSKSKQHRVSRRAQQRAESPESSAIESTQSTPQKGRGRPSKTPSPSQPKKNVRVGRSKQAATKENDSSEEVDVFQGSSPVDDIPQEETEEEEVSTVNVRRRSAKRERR

[5] = biological target: T3, Pds5B^10HIS; assay: negative staining EM, single-particle 3D reconstruction; GraFix-prepared complexes (0.1% glutaraldehyde gradient, ATPγS), uranyl formate stain; 3D models at 28-35 Å; densities assigned by difference maps; conditions: both partners purified

Molecule: Nc1ncnc2c1ncn2[C@@H]1O[C@H](COP(=O)(O)OP(=O)(O)OP(=O)(O)O)[C@@H](O)[C@H]1O [ATP]
radiolabelled ATPase assay, thin layer chromatography of released 32P-Pi [1]: The single point mutation largely abolished bonsai cohesin's ATPase activity
radiolabelled ATPase assay, thin layer chromatography of released 32P-Pi [2]: Bonsai trimers containing wild-type NBDs ... were able to hydrolyse ATP

Molecule: Nc1ncnc2c1ncn2[C@@H]1O[C@H](COP(=O)(O)OP(=O)(O)OP(O)(O)=S)[C@@H](O)[C@H]1O [ATPγS]
differential scanning fluorimetry (thermal shift) [3]: presence of the slowly hydrolyzable ATP-analogue ATPyS, as well as a near physiological pH improved the stability

binding result [4]: binds
B1: SA1 (natural protein, human, UniProt Q8WVM7 1-1258, looked up)
chain: MITSELPVLQDSTNETTAHSDAGSELEETEVKGKRKRGRPGRPPSTNKKPRKSPGEKSRIEAGIRGAGRGRANGHPQQNGEGEPVTLFEVVKLGKSAMQSVVDDWIESYKQDRDIALLDLINFFIQCSGCRGTVRIEMFRNMQNAEIIRKMTEEFDEDSGDYPLTMPGPQWKKFRSNFCEFIGVLIRQCQYSIIYDEYMMDTVISLLTGLSDSQVRAFRHTSTLAAMKLMTALVNVALNLSIHQDNTQRQYEAERNKMIGKRANERLELLLQKRKELQENQDEIENMMNSIFKGIFVHRYRDAIAEIRAICIEEIGVWMKMYSDAFLNDSYLKYVGWTLHDRQGEVRLKCLKALQSLYTNRELFPKLELFTNRFKDRIVSMTLDKEYDVAVEAIRLVTLILHGSEEALSNEDCENVYHLVYSAHRPVAVAAGEFLHKKLFSRHDPQAEEALAKRRGRNSPNGNLIRMLVLFFLESELHEHAAYLVDSLWESSQELLKDWECMTELLLEEPVQGEEAMSDRQESALIELMVCTIRQAAEAHPPVGRGTGKRVLTAKERKTQIDDRNKLTEHFIITLPMLLSKYSADAEKVANLLQIPQYFDLEIYSTGRMEKHLDALLKQIKFVVEKHVESDVLEACSKTYSILCSEEYTIQNRVDIARSQLIDEFVDRFNHSVEDLLQEGEEADDDDIYNVLSTLKRLTSFHNAHDLTKWDLFGNCYRLLKTGIEHGAMPEQIVVQALQCSHYSILWQLVKITDGSPSKEDLLVLRKTVKSFLAVCQQCLSNVNTPVKEQAFMLLCDLLMIFSHQLMTGGREGLQPLVFNPDTGLQSELLSFVMDHVFIDQDEENQSMEGDEEDEANKIEALHKRRNLLAAFSKLIIYDIVDMHAAADIFKHYMKYYNDYGDIIKETLSKTRQIDKIQCAKTLILSLQQLFNELVQEQGPNLDRTSAHVSGIKELARRFALTFGLDQIKTREAVATLHKDGIEFAFKYQNQKGQEYPPPNLAFLEVLSEFSSKLLRQDKKTVHSYLEKFLTEQMMERREDVWLPLISYRNSLVTGGEDDRMSVNSGSSSSKTSSVRNKKGRPPLHKKRVEDESLDNTWLNRTDTMIQTPGPLPAPQLTSTVLRENSRPMGDQIQEPESEHGSEPDFLHNPQMQISWLGQPKLEDLNRKDRTGMNYMKVRTGVRHAVRGLMEEDAEPIFEDVMMSSRSQLEDMNEEFEDTMVIDLPPSRNRRERAELRPDFFDSAAIIEDDSGFGMPMF
notes: SA1, human (146 kDa printed)

binding result [5]: binds
B2: Scc1^10HIS (natural protein, human, UniProt O60216 1-631, looked up)
chain: MFYAHFVLSKRGPLAKIWLAAHWDKKLTKAHVFECNLESSVESIISPKVKMALRTSGHLLLGVVRIYHRKAKYLLADCNEAFIKIKMAFRPGVVDLPEENREAAYNAITLPEEFHDFDQPLPDLDDIDVAQQFSLNQSRVEEITMREEVGNISILQENDFGDFGMDDREIMREGSAFEDDDMLVSTTTSNLLLESEQSTSNLNEKINHLEYEDQYKDDNFGEGNDGGILDDKLISNNDGGIFDDPPALSEAGVMLPEQPAHDDMDEDDNVSMGGPDSPDSVDPVEPMPTMTDQTTLVPNEEEAFALEPIDITVKETKAKRKRKLIVDSVKELDSKTIRAQLSDYSDIVTTLDLAPPTKKLMMWKETGGVEKLFSLPAQPLWNNRLLKLFTRCLTPLVPEDLRKRRKGGEADNLDEFLKEFENPEVPREDQQQQHQQRDVIDEPIIEEPSRLQESVMEASRTNIDESAMPPPPPQGVKRKAGQIDPEPVMPPQQVEQMEIPPVELPPEEPPNICQLIPELELLPEKEKEKEKEKEDDEEEEDEDASGGDQDQEERRWNKRTQQMLHGLQRALAKTGAESISLLELCRNTNRKQAAAKFYSFLVLKKQQAIELTQEEPYSDIIATPGPRFHII
notes: Scc1 (Rad21, Mcd1), human; also called Rad21; Mcd1
